Test results taken from patent US11583525B2, “Geranylgeranyltransferase I inhibitor for treatment of a PTEN defective cancer” (H. LEE MOFFITT CANCER CENTER AND RESEARCH INSTITUTE, INC., priority 2017, dated 2023).

Assays:
Format in all cases: cell-based, human
[1] = test system: NHFs; assay: H2O2-induced apoptosis in NHFs transfected with FBXL2 siRNA (automated nuclei count); conditions: pre-treated for 30 min with cyclosporin A (1 μM), H2O2 16 h
Description: FIGS. 1A, 1B, 1C, 1D, 1E, 1F, 1G, and 1H show FBXL2-mediated degradation of IP3R3 controls Ca2+ flux and sensitivity to apoptosis. […] Left, two representative traces. Right, quantification of three independent experiments. P values were calculated by one-way ANOVA and multiple-comparisons test. Error bars indicate s.e.m. 1b, 1c, and 1d, Apoptosis evaluated after treatment with H2O2 using automated nuclei count analysis of twenty randomly chosen fields following a 16 h treatment (1b), immunoblot detection of cleaved PARP and cleaved caspase-3 following a 3 h treatment (1c), and automated analysis of cells with released cytochrome c (Cyt c) from 80 randomly chosen fields following a 3 h treatment (1d). […] P values were calculated by one-way ANOVA and multiple-comparisons test. […] Left, representative traces show concentrations of cytosolic Ca2+ measured with aequorin. Right, quantification of three independent experiments. P values were calculated by one-way ANOVA and multiple-comparisons test. […] Apoptosis shown in 1h was evaluated as in 1b, except that H2O2 treatment was for 5 h. Analysis of cytochrome c release shown in 1i was evaluated as in 1d. P values were calculated by unpaired t-test. […]
Detection of cell death in cell systems. […] The mean fluorescence intensities and standard deviations of […] cytochrome c were evaluated in comparison to corresponding controls. […]

[2] = test system: IP3R3; assay: Serum-mediated degradation of IP3R3 in serum-starved, serum re-stimulated NHFs (immunoblotting); conditions: NHFs serum-starved 72 h, re-stimulated with serum; 10 μM MG132, 10 μM Eer1
Description: 24 h post-transfection, cells were treated with MG132 for 3 h before harvesting for immunoprecipitation and immunoblotting as indicated. WCL, whole-cell lysate from untransfected cells. […] After harvesting, cells were lysed, and cell membranes (CM) were isolated and immunoprecipitated with either a normal mouse IgG or an anti-Flag antibody. Subsequently, immunoprecipitates were analysed by immunoblotting as indicated. The results of these experiments (n=2) indicate that FBXL2 is incorporated into a complete SCF ligase that binds its substrate(s) at cellular membranes. […] After harvesting, cells were lysed and cytoplasmic (CYTO) and cell membrane (CM) fractions were isolated and analysed by immunoblotting as indicated. Actin and calnexin are used as markers for cytoplasmic and cell membrane fractions, respectively. This experiment was performed twice. […] 24 h post-transfection, where indicated, cells were treated with MG132 for 3 h before harvesting for immunoprecipitation and immunoblotting. Ned. CUL1, neddylated CUL1. […] The experiment was performed in the presence or absence of MG132 as indicated. Whole-cell lysates were immunoblotted as indicated. The asterisk indicates a non-specific band. This experiment was performed twice. […] P values were calculated by unpaired t-test. Error bars indicate s.e.m. […] Error bars indicate s.e.m. The values represent the ratios between FBXL2 and GAPDH mRNAs. […] Cells were subsequently stimulated with medium containing serum and harvested at the indicated times for immunoblotting. […] Error bars indicate s.e.m. […] Cells were subsequently stimulated with medium containing serum and harvested at the indicated time points for immunoblotting. […] Error bars indicate s.e.m. […] Exon 2 and exon 3 refer to the human FBXL2 gene in NC_000003.12 (GRCh38.p7 (Gene Bank ID: 3129728)). […]
FIGS. 6A, 6B, 6C, 6D, 6E, 6F, 6G, and 6H that the degradation of IP3R3 is dependent on FBXL2 localization to cell membranes and on the segregase activity of p97. […] Samples were analysed by immunoblotting with the indicated antibodies. […]

[3] = test system: FBXL2 and IP3R3; assay: FBXL2-IP3R3 co-immunoprecipitation after ATP stimulation; conditions: ATP for 30 min; particularly upon proteasome inhibition
Description: FIGS. 8A, 8B, 8C, 8D, 8E, 8F, 8G, 8H, 8I, and 8J show Mapping of the FBXL2-binding domain in IP3R3, and evidence that the N-terminal suppressor domain inhibits the IP3R3-FBXL2 interaction. […] Binding of IP3R3 to FBXL2 is indicated with the symbol (+). […] Whole-cell lysates (WCL) were immunoprecipitated (IP) with anti-Flag resin and proteins were immunoblotted as indicated. This experiment was performed twice. […] Sixteen hours after transfection, cells were incubated with MG132 for 3 h before stimulation with ATP for 30 min Whole-cell lysates were immunoprecipitated (IP) with an anti-HA resin and proteins were immunoblotted as indicated. This experiment was performed twice. […] Cells were subsequently treated with or without ATP for 30 min Whole-cell lysates were immunoprecipitated (IP) with an anti-Flag resin and proteins were immunoblotted as indicated. […] P values were calculated by one-way ANOVA and multiple-comparisons test. Error bars indicate s.e.m. […] It has been shown that removal of the N-terminal suppressor domain (amino acids 1-226) increases the binding of IP3 to the IP3 binding core domain (amino acids 227-579), and IP3 binding evokes conformational changes that open the suppressor domain29-32. These conformational changes may allow FBXL2 to access the degron of IP3R3 (that is, the amino acid region required for binding to FBXL2). […]

[4] = test system: IP3R3; assay: IP3R3 degradation in serum-starved and exponentially growing NHFs treated with ATP; conditions: NHFs cultured in presence or absence of serum

Compound: cyclosporin-A
- sensitization to H2O2 by FBXL2 silencing [1]: abolished the sensitization to H2O2 by FBXL2 silencing

Compound: CC(=O)N[C@@H](CSC(=O)[C@]1([C@@H](O)C(C)C)NC(=O)[C@H](C)[C@@H]1O)C(=O)O [lactacystin]
- IP3R3 levels / degradation after serum re-stimulation [2]: much less

Compound: CC1(C)C(N(O)C(=O)Nc2ccc(Cl)cc2)N(c2ccc(Cl)cc2)C(=O)N1CC(=O)N/N=C/C=C/c1ccc([N+](=O)[O-])o1 (centres unmarked) [Eer1, Eeyarestatin 1]
- IP3R3 levels / degradation after serum re-stimulation [2]: blocked IP3R3 degradation

Compound: Nc1ncnc2c1ncn2[C@@H]1O[C@H](COP(=O)(O)OP(=O)(O)OP(=O)(O)O)[C@@H](O)[C@H]1O [ATP]
- binding between FBXL2 and IP3R3 [3]: increased the binding between FBXL2 and IP3R3
- degradation of IP3R3 [4]: promoted the degradation of IP3R3 in cells cultured in the presence, but not in the absence, of serum
